Experimental findings from the Kinase Knowledgebase extract (Sharma et al. 2016) are described below.

In this experiment the target is EGFR (UniProt P00533).

SMILES strings stand for the structures.

EGFR, sequence (P00533 whole entry, looked up): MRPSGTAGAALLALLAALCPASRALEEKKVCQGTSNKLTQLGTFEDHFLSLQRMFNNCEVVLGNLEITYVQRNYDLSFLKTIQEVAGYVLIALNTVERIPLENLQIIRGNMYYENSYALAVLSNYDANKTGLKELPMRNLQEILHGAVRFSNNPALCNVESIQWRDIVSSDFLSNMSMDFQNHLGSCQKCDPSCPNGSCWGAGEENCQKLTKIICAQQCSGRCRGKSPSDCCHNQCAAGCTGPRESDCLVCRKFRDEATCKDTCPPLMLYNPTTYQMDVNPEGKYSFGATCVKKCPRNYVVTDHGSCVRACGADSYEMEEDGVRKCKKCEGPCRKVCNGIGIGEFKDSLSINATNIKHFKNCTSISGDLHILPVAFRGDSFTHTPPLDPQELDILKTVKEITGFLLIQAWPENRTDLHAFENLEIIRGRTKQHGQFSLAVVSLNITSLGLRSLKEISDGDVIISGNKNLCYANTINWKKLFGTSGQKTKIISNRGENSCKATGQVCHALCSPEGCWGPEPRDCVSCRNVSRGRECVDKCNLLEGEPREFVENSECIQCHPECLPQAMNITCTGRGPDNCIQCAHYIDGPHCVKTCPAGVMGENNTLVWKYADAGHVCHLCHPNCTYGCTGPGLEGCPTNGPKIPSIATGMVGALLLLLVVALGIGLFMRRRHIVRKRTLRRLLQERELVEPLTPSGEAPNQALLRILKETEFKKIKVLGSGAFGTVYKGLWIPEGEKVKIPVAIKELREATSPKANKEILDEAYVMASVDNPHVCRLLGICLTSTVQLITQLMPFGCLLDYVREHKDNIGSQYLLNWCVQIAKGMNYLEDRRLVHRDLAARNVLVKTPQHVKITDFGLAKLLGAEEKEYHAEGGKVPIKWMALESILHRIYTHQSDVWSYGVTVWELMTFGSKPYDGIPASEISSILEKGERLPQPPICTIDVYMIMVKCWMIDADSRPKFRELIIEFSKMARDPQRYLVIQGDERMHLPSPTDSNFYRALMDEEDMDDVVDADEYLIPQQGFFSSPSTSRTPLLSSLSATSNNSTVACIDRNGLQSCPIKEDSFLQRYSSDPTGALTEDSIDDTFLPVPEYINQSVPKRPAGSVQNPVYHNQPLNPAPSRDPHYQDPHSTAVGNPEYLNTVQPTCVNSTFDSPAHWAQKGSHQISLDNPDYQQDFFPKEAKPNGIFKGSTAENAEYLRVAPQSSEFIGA

What is called IC50 is the point on the concentration scale where inhibition reaches its midpoint. Read a high IC50 as a need for much substance. For the compound `Cn1c(=O)c(-c2c(Cl)cccc2Cl)cc2cnc(N)nc21`, the IC50 came to 5600 nM.
In the case of `Brc1cccc(Nc2ccnc3ccccc23)c1`, the IC50 amounted to 5500 nM.
`CN(C)c1ncc2cc(-c3c(Cl)cccc3Cl)c(=O)n(C)c2n1`: the IC50 worked out at 50000 nM.
Under `COc1cc2nc(C)nc(Nc3cccc(Br)c3)c2cc1OC` stands over 10000 nM.
On to `Nc1ccc(-c2cc3c(Nc4cccc(Cl)c4)ncnc3[nH]2)cc1`, for which the half-maximal inhibitory concentration (IC50) was under 5 nM.
Under `Cc1[nH]c2ncnc(Nc3cccc(O)c3)c2c1C` stands 1250 nM.
`CCOC(=O)c1ccc(-c2cc3c(Nc4cccc(Cl)c4)ncnc3[nH]2)cc1` gave an IC50 of under 5 nM.
`Cc1[nH]c2ncnc(Nc3cccc(C(=O)O)c3)c2c1C` came in with a half-inhibitory concentration (IC50) of 16300 nM.
Under `Cc1c(-c2ccccc2)[nH]c2ncnc(Nc3cccc(Cl)c3)c12` stands 10 nM.
Under `Brc1cccc(Nc2nccc3ccccc23)c1` stands over 100000 nM; under `O=C(O)c1ccc(-c2cc3c(Nc4cccc(Cl)c4)ncnc3[nH]2)cc1`, under 5 nM; under `Nc1cccc(-c2cc3c(Nc4cccc(Cl)c4)ncnc3[nH]2)c1`, under 5 nM.
For `COc1cc2nc(N)nc(Nc3cccc(Br)c3)c2cc1OC` the value was 463 nM; for `CCN(CC)CCOc1ccc(Nc2ncc3cc(-c4c(Cl)cccc4Cl)c(NC(=O)NC(C)(C)C)nc3n2)cc1`, 24 nM.
`Oc1cccc(-c2cc3c(Nc4cccc(Cl)c4)ncnc3[nH]2)c1`: the IC50 was under 5 nM.
Under `Oc1ccc(-c2cc3c(Nc4cccc(Cl)c4)ncnc3[nH]2)cc1` stands under 5 nM; under `Brc1cccc(Nc2ncnc3ccccc23)c1`, 27 nM.
Compound `Cc1[nH]c2ncnc(Nc3cccc(Br)c3)c2c1C` displayed an IC50 of 27 nM.
Under `Clc1cccc(Nc2ncnc3[nH]nc(Nc4cccc(Cl)c4)c23)c1` stands 84 nM.
